Legend:
Experiment in all cases: radiometric filter-binding kinase assay, Kinase HotSpot
Conditions in all cases: compound 0.5 µM; ATP 10 µM
FGFR2 (human) = FGFR2 (human) (UniProt P21802)
RPS6KB2 (human) = RPS6KB2 (human) (UniProt Q9UBS0)
NTRK1 (human) = NTRK1 (human) (UniProt P04629)
SRPK3 (human) = SRPK3 (human) (UniProt Q9UPE1)
RPS6KA4 KD2 (human) = RPS6KA4 KD2 (human) (UniProt O75676)
GRK4 (human) = GRK4 (human) (UniProt P32298)
TAOK2 (human) = TAOK2 (human) (UniProt Q9UL54)
RPS6KA1 KD1 KD2 (human) = RPS6KA1 KD1 KD2 (human) (UniProt Q15418)
AURKA (human) = AURKA (human) (UniProt O14965)
BTK (human) = BTK (human) (UniProt Q06187)
DMPK (human) = DMPK (human) (UniProt Q09013)
EPHB2 (human) = EPHB2 (human) (UniProt P29323)
ALK (human) = ALK (human) (UniProt Q9UM73)
NEK2 (human) = NEK2 (human) (UniProt P51955)
AKT1 (human) = AKT1 (human) (UniProt P31749)
JAK3 JH1 JH2 (human) = JAK3 JH1 JH2 (human) (UniProt P52333)
PAK7 (human) = PAK7 (human) (UniProt Q9P286)
GSG2 (human) = GSG2 (human) (UniProt Q8TF76)
[1] = target: JAK1 JH1 catalytic (human) (UniProt P23458)
PLK2 (human) = PLK2 (human) (UniProt Q9NYY3)
TNK2 (human) = TNK2 (human) (UniProt Q07912)
CDK4 CCND1 (human) = CDK4 CCND1 (human) (UniProt P24385+P11802)
PRKCD (human) = PRKCD (human) (UniProt Q05655)
IRAK1 (human) = IRAK1 (human) (UniProt P51617)
CAMK2A (human) = CAMK2A (human) (UniProt Q9UQM7)
PRKD1 (human) = PRKD1 (human) (UniProt Q15139)
CDC42BPB (human) = CDC42BPB (human) (UniProt Q9Y5S2)
OXSR1 (human) = OXSR1 (human) (UniProt O95747)
MAP2K1 (human) = MAP2K1 (human) (UniProt Q02750)
WEE1 (human) = WEE1 (human) (UniProt P30291)
FGR (human) = FGR (human) (UniProt P09769)
MAPK10 (human) = MAPK10 (human) (UniProt P53779)
ABL2 (human) = ABL2 (human) (UniProt P42684)
EPHA8 (human) = EPHA8 (human) (UniProt P29322)
CDC42BPA (human) = CDC42BPA (human) (UniProt Q5VT25)
DYRK1B (human) = DYRK1B (human) (UniProt Q9Y463)
FGFR1 (human) = FGFR1 (human) (UniProt P11362)
CDK5 CDK5R1 p35 (human) = CDK5 CDK5R1 p35 (human) (UniProt Q00535+Q15078)
MAPK9 (human) = MAPK9 (human) (UniProt P45984)
SIK2 (human) = SIK2 (human) (UniProt Q9H0K1)

Chain of RPS6KA4 KD2 (human) (O75676 whole entry, looked up): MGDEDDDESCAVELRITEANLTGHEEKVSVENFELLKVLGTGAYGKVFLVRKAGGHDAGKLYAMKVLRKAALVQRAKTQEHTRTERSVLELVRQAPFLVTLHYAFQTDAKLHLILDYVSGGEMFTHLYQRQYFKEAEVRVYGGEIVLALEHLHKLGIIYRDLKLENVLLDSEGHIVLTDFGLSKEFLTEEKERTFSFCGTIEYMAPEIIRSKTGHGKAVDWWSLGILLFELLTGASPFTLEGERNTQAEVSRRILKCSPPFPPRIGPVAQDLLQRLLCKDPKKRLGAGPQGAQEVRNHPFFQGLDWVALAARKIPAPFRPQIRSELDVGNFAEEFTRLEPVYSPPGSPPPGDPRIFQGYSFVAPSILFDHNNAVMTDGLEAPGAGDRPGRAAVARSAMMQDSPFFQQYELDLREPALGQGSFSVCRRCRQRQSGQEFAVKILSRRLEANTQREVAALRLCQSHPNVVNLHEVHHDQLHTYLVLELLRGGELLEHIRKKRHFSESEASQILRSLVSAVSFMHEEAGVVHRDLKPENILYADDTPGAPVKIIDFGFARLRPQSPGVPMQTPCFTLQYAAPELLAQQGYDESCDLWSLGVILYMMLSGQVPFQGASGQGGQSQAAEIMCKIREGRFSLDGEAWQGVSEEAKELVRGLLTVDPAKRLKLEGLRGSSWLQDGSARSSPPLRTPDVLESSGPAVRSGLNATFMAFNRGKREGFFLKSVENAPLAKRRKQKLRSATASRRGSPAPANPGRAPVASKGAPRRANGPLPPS
Chain of AURKA (human) (O14965 whole entry, looked up): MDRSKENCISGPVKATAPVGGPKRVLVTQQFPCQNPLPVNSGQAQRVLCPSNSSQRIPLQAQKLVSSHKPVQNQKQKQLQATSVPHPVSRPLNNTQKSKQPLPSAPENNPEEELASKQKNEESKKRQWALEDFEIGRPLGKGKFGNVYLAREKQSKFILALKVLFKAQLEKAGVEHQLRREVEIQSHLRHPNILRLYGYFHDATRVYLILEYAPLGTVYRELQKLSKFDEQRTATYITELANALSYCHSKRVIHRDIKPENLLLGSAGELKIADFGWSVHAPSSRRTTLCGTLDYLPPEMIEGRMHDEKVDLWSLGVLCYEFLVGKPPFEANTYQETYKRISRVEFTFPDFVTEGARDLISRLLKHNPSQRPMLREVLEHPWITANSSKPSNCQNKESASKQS
Chain of AKT1 (human) (P31749 whole entry, looked up): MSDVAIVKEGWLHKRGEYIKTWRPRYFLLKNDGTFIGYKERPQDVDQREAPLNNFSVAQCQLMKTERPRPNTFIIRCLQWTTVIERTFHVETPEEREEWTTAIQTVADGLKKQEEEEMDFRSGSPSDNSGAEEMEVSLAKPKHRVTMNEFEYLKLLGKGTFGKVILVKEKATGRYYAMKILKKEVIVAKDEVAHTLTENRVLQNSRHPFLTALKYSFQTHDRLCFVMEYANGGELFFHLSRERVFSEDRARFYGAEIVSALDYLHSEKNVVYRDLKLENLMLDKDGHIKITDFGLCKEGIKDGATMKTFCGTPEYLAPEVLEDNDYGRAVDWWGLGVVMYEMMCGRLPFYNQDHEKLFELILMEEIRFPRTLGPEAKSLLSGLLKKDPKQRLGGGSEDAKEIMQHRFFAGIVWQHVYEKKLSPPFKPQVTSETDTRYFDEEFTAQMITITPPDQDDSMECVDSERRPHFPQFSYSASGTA
Chain of DYRK1B (human) (Q9Y463 whole entry, looked up): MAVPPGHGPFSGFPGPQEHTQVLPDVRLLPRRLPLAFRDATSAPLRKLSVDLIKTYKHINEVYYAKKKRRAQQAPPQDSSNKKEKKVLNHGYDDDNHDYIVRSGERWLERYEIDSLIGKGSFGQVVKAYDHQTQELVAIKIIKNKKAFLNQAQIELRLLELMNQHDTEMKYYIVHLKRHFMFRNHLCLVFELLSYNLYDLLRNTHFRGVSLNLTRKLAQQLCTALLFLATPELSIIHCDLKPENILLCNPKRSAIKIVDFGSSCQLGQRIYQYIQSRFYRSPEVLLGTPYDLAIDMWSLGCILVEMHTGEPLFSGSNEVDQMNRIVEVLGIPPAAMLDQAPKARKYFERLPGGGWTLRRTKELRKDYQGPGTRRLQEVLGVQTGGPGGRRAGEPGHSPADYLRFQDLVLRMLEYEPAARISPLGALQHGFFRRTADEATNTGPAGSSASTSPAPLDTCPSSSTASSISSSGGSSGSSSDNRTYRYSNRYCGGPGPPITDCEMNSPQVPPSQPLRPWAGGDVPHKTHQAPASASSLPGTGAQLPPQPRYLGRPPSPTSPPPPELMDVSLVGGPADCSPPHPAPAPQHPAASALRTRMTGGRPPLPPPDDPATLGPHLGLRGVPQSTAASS
Chain of WEE1 (human) (P30291 whole entry, looked up): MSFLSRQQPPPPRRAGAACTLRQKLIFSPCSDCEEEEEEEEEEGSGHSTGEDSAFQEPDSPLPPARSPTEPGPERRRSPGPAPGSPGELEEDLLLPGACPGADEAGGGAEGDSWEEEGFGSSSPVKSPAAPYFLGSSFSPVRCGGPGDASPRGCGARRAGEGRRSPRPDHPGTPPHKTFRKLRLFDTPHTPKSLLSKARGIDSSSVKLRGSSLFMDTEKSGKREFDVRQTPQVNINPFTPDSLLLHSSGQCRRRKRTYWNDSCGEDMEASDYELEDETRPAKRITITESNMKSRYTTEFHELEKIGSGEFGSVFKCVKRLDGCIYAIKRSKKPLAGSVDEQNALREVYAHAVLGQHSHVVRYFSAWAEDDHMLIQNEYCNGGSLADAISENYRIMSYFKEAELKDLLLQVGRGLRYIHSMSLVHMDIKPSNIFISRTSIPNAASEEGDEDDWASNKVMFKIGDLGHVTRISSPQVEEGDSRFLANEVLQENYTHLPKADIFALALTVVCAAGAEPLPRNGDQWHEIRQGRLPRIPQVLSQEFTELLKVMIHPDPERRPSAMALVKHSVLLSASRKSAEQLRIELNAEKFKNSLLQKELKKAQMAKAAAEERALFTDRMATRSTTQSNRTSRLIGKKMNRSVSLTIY
Chain of EPHA8 (human) (P29322 whole entry, looked up): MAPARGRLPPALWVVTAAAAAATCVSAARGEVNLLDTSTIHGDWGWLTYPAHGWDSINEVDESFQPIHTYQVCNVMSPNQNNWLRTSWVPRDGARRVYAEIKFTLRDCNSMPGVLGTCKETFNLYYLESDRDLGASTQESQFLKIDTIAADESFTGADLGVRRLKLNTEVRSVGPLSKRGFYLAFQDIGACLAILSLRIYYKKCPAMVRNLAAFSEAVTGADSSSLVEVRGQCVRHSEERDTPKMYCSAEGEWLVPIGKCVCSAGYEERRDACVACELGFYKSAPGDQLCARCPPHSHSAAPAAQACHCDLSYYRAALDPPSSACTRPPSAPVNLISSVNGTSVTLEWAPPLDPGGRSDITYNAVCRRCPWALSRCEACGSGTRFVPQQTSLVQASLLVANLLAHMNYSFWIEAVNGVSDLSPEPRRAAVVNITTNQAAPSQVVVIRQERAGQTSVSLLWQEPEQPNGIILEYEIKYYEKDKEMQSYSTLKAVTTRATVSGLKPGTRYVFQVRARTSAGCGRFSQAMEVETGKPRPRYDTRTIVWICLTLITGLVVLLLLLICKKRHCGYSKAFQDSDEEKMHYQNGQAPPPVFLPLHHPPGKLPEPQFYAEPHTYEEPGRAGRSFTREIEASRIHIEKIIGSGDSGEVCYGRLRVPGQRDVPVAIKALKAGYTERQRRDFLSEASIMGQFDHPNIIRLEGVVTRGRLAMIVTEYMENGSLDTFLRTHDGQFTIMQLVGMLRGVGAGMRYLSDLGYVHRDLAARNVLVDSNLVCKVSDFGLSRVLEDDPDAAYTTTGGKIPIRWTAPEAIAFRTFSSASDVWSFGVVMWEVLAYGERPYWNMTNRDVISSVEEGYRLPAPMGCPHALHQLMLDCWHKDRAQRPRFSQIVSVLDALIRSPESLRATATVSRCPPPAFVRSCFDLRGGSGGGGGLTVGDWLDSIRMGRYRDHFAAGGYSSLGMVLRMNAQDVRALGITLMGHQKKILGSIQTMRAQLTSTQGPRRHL
Chain of PLK2 (human) (Q9NYY3 whole entry, looked up): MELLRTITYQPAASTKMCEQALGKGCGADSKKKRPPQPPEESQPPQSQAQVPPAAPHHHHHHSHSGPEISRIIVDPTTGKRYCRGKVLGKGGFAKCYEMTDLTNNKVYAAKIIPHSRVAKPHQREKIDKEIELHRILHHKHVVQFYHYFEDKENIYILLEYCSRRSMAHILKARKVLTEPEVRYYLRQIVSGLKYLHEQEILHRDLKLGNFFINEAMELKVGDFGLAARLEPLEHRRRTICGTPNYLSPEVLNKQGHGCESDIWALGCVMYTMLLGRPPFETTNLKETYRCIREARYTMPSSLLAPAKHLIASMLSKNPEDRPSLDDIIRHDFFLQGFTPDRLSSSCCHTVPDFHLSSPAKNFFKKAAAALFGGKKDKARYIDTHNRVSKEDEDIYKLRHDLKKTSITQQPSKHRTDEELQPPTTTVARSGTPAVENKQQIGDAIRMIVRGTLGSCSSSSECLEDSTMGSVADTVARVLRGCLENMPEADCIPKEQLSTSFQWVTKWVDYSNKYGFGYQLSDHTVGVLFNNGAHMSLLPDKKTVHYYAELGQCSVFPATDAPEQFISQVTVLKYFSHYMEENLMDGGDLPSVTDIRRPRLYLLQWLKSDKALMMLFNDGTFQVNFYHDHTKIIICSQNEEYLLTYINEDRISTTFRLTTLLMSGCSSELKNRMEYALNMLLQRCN
Chain of MAP2K1 (human) (Q02750 whole entry, looked up): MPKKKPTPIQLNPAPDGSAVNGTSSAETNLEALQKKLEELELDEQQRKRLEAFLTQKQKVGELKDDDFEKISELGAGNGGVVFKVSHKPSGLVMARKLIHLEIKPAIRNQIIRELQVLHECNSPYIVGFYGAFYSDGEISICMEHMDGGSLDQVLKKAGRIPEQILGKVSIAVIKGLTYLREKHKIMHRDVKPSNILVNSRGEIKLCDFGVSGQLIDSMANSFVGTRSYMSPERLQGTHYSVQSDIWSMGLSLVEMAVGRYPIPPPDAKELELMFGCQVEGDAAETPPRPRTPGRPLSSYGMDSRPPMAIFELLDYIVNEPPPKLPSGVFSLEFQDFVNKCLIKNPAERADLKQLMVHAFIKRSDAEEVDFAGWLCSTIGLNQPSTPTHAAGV

## Nc1cccc(-c2cc3c(Oc4cccc(O)c4)ncnc3[nH]2)c1
FGFR2 (human)
  residual activity: 46.1%
RPS6KB2 (human)
  residual activity: 94.7%
NTRK1 (human)
  residual activity: 90.5%
SRPK3 (human)
  residual activity: 101%
RPS6KA4 KD2 (human)
  residual activity: 103%
GRK4 (human)
  residual activity: 94.7%
TAOK2 (human)
  residual activity: 81.4%
RPS6KA1 KD1 KD2 (human)
  residual activity: 105%
AURKA (human)
  residual activity: 78.2%
BTK (human)
  residual activity: 33.6%
DMPK (human)
  residual activity: 95.2%
EPHB2 (human)
  residual activity: 40.7%
ALK (human)
  residual activity: 80.9%
NEK2 (human)
  residual activity: 98%
AKT1 (human)
  residual activity: 92.5%
JAK3 JH1 JH2 (human)
  residual activity: 123%
PAK7 (human)
  residual activity: 86.9%
GSG2 (human)
  residual activity: 93.3%
[1]
  residual activity: 106%
PLK2 (human)
  residual activity: 106%
TNK2 (human)
  residual activity: 19.6%
CDK4 CCND1 (human)
  residual activity: 88.7%
PRKCD (human)
  residual activity: 95.7%
IRAK1 (human)
  residual activity: 91.4%
CAMK2A (human)
  residual activity: 115%
PRKD1 (human)
  residual activity: 94.4%
CDC42BPB (human)
  residual activity: 93.5%
OXSR1 (human)
  residual activity: 119%
MAP2K1 (human)
  residual activity: 76.3%
WEE1 (human)
  residual activity: 85.5%
FGR (human)
  residual activity: 5.28%
MAPK10 (human)
  residual activity: 89.4%
ABL2 (human)
  residual activity: 1.4%
EPHA8 (human)
  residual activity: 57.5%
CDC42BPA (human)
  residual activity: 87.7%
DYRK1B (human)
  residual activity: 100%
FGFR1 (human)
  residual activity: 39.3%
CDK5 CDK5R1 p35 (human)
  residual activity: 72.2%
MAPK9 (human)
  residual activity: 111%
SIK2 (human)
  residual activity: 69.4%

## c1ccc(-c2n[nH]c3c2oc2ccccc23)cc1
FGFR2 (human)
  residual activity: 97%
RPS6KB2 (human)
  residual activity: 99.8%
NTRK1 (human)
  residual activity: 85.6%
SRPK3 (human)
  residual activity: 94.5%
RPS6KA4 KD2 (human)
  residual activity: 90.2%
GRK4 (human)
  residual activity: 110%
TAOK2 (human)
  residual activity: 80.7%
RPS6KA1 KD1 KD2 (human)
  residual activity: 100%
AURKA (human)
  residual activity: 103%
BTK (human)
  residual activity: 96.4%
DMPK (human)
  residual activity: 99.5%
EPHB2 (human)
  residual activity: 83.1%
ALK (human)
  residual activity: 95.9%
NEK2 (human)
  residual activity: 99.8%
AKT1 (human)
  residual activity: 86.9%
JAK3 JH1 JH2 (human)
  residual activity: 132%
PAK7 (human)
  residual activity: 70.9%
GSG2 (human)
  residual activity: 99.3%
[1]
  residual activity: 104%
PLK2 (human)
  residual activity: 102%
TNK2 (human)
  residual activity: 85.8%
CDK4 CCND1 (human)
  residual activity: 87.9%
PRKCD (human)
  residual activity: 96.7%
IRAK1 (human)
  residual activity: 98%
CAMK2A (human)
  residual activity: 110%
PRKD1 (human)
  residual activity: 79.2%
CDC42BPB (human)
  residual activity: 99%
OXSR1 (human)
  residual activity: 101%
MAP2K1 (human)
  residual activity: 96.4%
WEE1 (human)
  residual activity: 92.6%
FGR (human)
  residual activity: 116%
MAPK10 (human)
  residual activity: 93.4%
ABL2 (human)
  residual activity: 86.7%
EPHA8 (human)
  residual activity: 102%
CDC42BPA (human)
  residual activity: 87.4%
DYRK1B (human)
  residual activity: 101%
FGFR1 (human)
  residual activity: 85.9%
CDK5 CDK5R1 p35 (human)
  residual activity: 85.8%
MAPK9 (human)
  residual activity: 96.5%
SIK2 (human)
  residual activity: 98.3%

## Cc1ccc(S(=O)(=O)/C=C/C#N)cc1
FGFR2 (human)
  residual activity: 102%
RPS6KB2 (human)
  residual activity: 109%
NTRK1 (human)
  residual activity: 90.1%
SRPK3 (human)
  residual activity: 104%
RPS6KA4 KD2 (human)
  residual activity: 82.8%
GRK4 (human)
  residual activity: 96.8%
TAOK2 (human)
  residual activity: 89.7%
RPS6KA1 KD1 KD2 (human)
  residual activity: 91.6%
AURKA (human)
  residual activity: 111%
BTK (human)
  residual activity: 94.4%
DMPK (human)
  residual activity: 89%
EPHB2 (human)
  residual activity: 104%
ALK (human)
  residual activity: 103%
NEK2 (human)
  residual activity: 101%
AKT1 (human)
  residual activity: 112%
JAK3 JH1 JH2 (human)
  residual activity: 101%
PAK7 (human)
  residual activity: 100%
GSG2 (human)
  residual activity: 101%
[1]
  residual activity: 98.2%
PLK2 (human)
  residual activity: 103%
TNK2 (human)
  residual activity: 94.9%
CDK4 CCND1 (human)
  residual activity: 103%
PRKCD (human)
  residual activity: 95.6%
IRAK1 (human)
  residual activity: 103%
CAMK2A (human)
  residual activity: 103%
PRKD1 (human)
  residual activity: 93.8%
CDC42BPB (human)
  residual activity: 96.4%
OXSR1 (human)
  residual activity: 103%
MAP2K1 (human)
  residual activity: 93.9%
WEE1 (human)
  residual activity: 96.4%
FGR (human)
  residual activity: 100%
MAPK10 (human)
  residual activity: 107%
ABL2 (human)
  residual activity: 104%
EPHA8 (human)
  residual activity: 96.8%
CDC42BPA (human)
  residual activity: 96.4%
DYRK1B (human)
  residual activity: 101%
FGFR1 (human)
  residual activity: 106%
CDK5 CDK5R1 p35 (human)
  residual activity: 97%
MAPK9 (human)
  residual activity: 102%
SIK2 (human)
  residual activity: 106%

## COc1ccc2c(c[n+](C)c3c4cc5c(cc4ccc23)OCO5)c1OC
FGFR2 (human)
  residual activity: 101%
RPS6KB2 (human)
  residual activity: 99.6%
NTRK1 (human)
  residual activity: 89.8%
SRPK3 (human)
  residual activity: 96.1%
RPS6KA4 KD2 (human)
  residual activity: 88.3%
GRK4 (human)
  residual activity: 94.8%
TAOK2 (human)
  residual activity: 95%
RPS6KA1 KD1 KD2 (human)
  residual activity: 104%
AURKA (human)
  residual activity: 107%
BTK (human)
  residual activity: 98.6%
DMPK (human)
  residual activity: 100%
EPHB2 (human)
  residual activity: 97.1%
ALK (human)
  residual activity: 105%
NEK2 (human)
  residual activity: 98.6%
AKT1 (human)
  residual activity: 97.6%
JAK3 JH1 JH2 (human)
  residual activity: 101%
PAK7 (human)
  residual activity: 77.4%
GSG2 (human)
  residual activity: 98.8%
[1]
  residual activity: 88.5%
PLK2 (human)
  residual activity: 97.6%
TNK2 (human)
  residual activity: 101%
CDK4 CCND1 (human)
  residual activity: 87.5%
PRKCD (human)
  residual activity: 96.8%
IRAK1 (human)
  residual activity: 103%
CAMK2A (human)
  residual activity: 99.5%
PRKD1 (human)
  residual activity: 100%
CDC42BPB (human)
  residual activity: 107%
OXSR1 (human)
  residual activity: 94.8%
MAP2K1 (human)
  residual activity: 97.8%
WEE1 (human)
  residual activity: 108%
FGR (human)
  residual activity: 91.3%
MAPK10 (human)
  residual activity: 100%
ABL2 (human)
  residual activity: 96.7%
EPHA8 (human)
  residual activity: 100%
CDC42BPA (human)
  residual activity: 84.8%
DYRK1B (human)
  residual activity: 102%
FGFR1 (human)
  residual activity: 96%
CDK5 CDK5R1 p35 (human)
  residual activity: 95.7%
MAPK9 (human)
  residual activity: 102%
SIK2 (human)
  residual activity: 95.5%

## Cc1ccc(NC2=CC(=O)c3sc(C)nc3C2=O)cc1
FGFR2 (human)
  residual activity: 91%
RPS6KB2 (human)
  residual activity: 95.2%
NTRK1 (human)
  residual activity: 80.6%
SRPK3 (human)
  residual activity: 98.2%
RPS6KA4 KD2 (human)
  residual activity: 88.4%
GRK4 (human)
  residual activity: 93.1%
TAOK2 (human)
  residual activity: 96.6%
RPS6KA1 KD1 KD2 (human)
  residual activity: 102%
AURKA (human)
  residual activity: 110%
BTK (human)
  residual activity: 99.2%
DMPK (human)
  residual activity: 103%
EPHB2 (human)
  residual activity: 100%
ALK (human)
  residual activity: 105%
NEK2 (human)
  residual activity: 96.4%
AKT1 (human)
  residual activity: 83.3%
JAK3 JH1 JH2 (human)
  residual activity: 97.4%
PAK7 (human)
  residual activity: 77.4%
GSG2 (human)
  residual activity: 86.6%
[1]
  residual activity: 95.1%
PLK2 (human)
  residual activity: 95.1%
TNK2 (human)
  residual activity: 94.3%
CDK4 CCND1 (human)
  residual activity: 92%
PRKCD (human)
  residual activity: 104%
IRAK1 (human)
  residual activity: 108%
CAMK2A (human)
  residual activity: 101%
PRKD1 (human)
  residual activity: 102%
CDC42BPB (human)
  residual activity: 109%
OXSR1 (human)
  residual activity: 86.6%
MAP2K1 (human)
  residual activity: 96.1%
WEE1 (human)
  residual activity: 107%
FGR (human)
  residual activity: 85.3%
MAPK10 (human)
  residual activity: 105%
ABL2 (human)
  residual activity: 98.3%
EPHA8 (human)
  residual activity: 94.1%
CDC42BPA (human)
  residual activity: 77.6%
DYRK1B (human)
  residual activity: 94.6%
FGFR1 (human)
  residual activity: 85.3%
CDK5 CDK5R1 p35 (human)
  residual activity: 86.3%
MAPK9 (human)
  residual activity: 96.5%
SIK2 (human)
  residual activity: 118%
